Assay [1] has as its system SDMA signal (PRMT5 inhibition) in HCT116 MTAP-deleted cells. Briefly: Symmetric di-methyl arginine image-based high content screen assay (SDMA assay), HCT116 MTAP-deleted. Type of assay: cell-based. The conditions noted are these: SDMA assay; for EC50: Homo sapiens, HCT-116, 72 h, 3 days of treatment, cell line not given, taken as HCT116 MTAP-deleted, read-out: EC50 (SDMA assay); for EC50 selectivity (SDMA assay): taken as HCT116 WT versus MTAP-deleted. Put shortly:
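HCT116 MTAP-deleted cells treated with compound until Day 3, then formalin-fixed, permeabilized and immunostained for SDMA, with DAPI nuclear counterstain. Imaged by high-content microscopy; SDMA read-out is mean Alexa 488 intensity per DAPI-defined cell, reflecting PRMT5 inhibition.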

The subject of assay [2] is HCT116 MTAP-deleted cells. The assay can be described thus: Cell viability assay (CellTiter-Glo, 7 days), HCT116 MTAP-deleted. Conditions: Homo sapiens, HCT-116, 168 h. (In ATP-based viability assays light output follows the ATP content of the culture.)

21 molecules from patent US20240254118A1, “PRMT5 INHIBITORS AND USES THEREOF” (Gilead Sciences, Inc., priority 2022, published 2024) can be followed below.

Take `CC(=O)N(C)N(Cc1ccccc1F)C(=O)c1cc2c(cc1F)nc(N)c1cnn(C)c12` [Example 182, N′-acetyl-4-amino-7-fluoro-N-(2-fluorobenzyl)-N′,1-dimethyl-1H-pyrazolo[4,3-c]quinoline-8-carbohydrazide]: in assay [1], the EC50 (as a rule, the concentration needed to bring the measured effect to its halfway point) was under 1 nM and the “EC50 selectivity (SDMA assay)” value turned out to be 209. Also, the CC50 (usually the concentration at which the toxic effect on the cells reaches its halfway point) in assay [2] was under 100 nM.
Consider `CC(=O)N(C)N(Cc1ccccc1Cl)C(=O)c1ccc2nc(N)c3cnn(C)c3c2c1` [Example 183, N′-acetyl-4-amino-N-(2-chlorobenzyl)-N′,1-dimethyl-1H-pyrazolo[4,3-c]quinoline-8-carbohydrazide], for which, in assay [1], the EC50 is 1 to 5 nM and the “EC50 selectivity (SDMA assay)” value was 300. The molecule also gave a CC50 in assay [2] of under 100 nM.
As to `CN(C(=O)c1cccnn1)N(Cc1ccc(C(F)(F)F)cn1)C(=O)c1ccc2nc(N)c3cnn(C)c3c2c1` [Example 184, 14-amino-N′,1-dimethyl-N′-(pyridazine-3-carbonyl)-N-((5-(trifluoromethyl)pyridin-2-yl)methyl)-1H-pyrazolo[4,3-c]quinoline-8-carbohydrazide], in assay [1], the EC50 is over 5 nM and the “EC50 selectivity (SDMA assay)” value is listed as 195. Also, in assay [2], the CC50 was over 1000 nM.
In the case of `CN(C(=O)C12CC(CO1)C2)N(Cc1ccc(C(F)(F)F)cn1)C(=O)c1ccc2nc(N)c3cnn(C)c3c2c1` [Example 185, 4-amino-N′,1-dimethyl-N′-(2-oxabicyclo[2.1.1]hexane-1-carbonyl)-N-[[5-(trifluoromethyl)-2-pyridyl]methyl]pyrazolo[4,3-c]quinoline-8-carbohydrazide], in assay [1], the EC50 was under 1 nM and the “EC50 selectivity (SDMA assay)” value stood at 33. Besides, the CC50 in assay [2] is under 100 nM.
Taken in the same sequence, the figures for `CN(C(=O)C12COC(C1)C2)N(Cc1ccc(C(F)(F)F)cn1)C(=O)c1ccc2nc(N)c3cnn(C)c3c2c1` [Example 186, 4-amino-N′,1-dimethyl-N′-(2-oxabicyclo[2.1.1]hexane-4-carbonyl)-N-[[5-(trifluoromethyl)-2-pyridyl]methyl]pyrazolo[4,3-c]quinoline-8-carbohydrazide] were 1 to 5 nM, 66 and 100 to 1000 nM.
As for `COC12CC(C(=O)N(C)N(Cc3ccc(C(F)(F)F)cn3)C(=O)c3ccc4nc(N)c5cnn(C)c5c4c3)(C1)C2` [Example 187, 4-amino-N′-(3-methoxybicyclo[1.1.1]pentane-1-carbonyl)-N′,1-dimethyl-N-[[5-(trifluoromethyl)-2-pyridyl]methyl]pyrazolo[4,3-c]quinoline-8-carbohydrazide], in assay [1], the EC50 is 1 to 5 nM and the “EC50 selectivity (SDMA assay)” value is given as 50. This molecule also registered a CC50 in assay [2] of under 100 nM.
On the same counts, the results for `CN(C(=O)C12CC(C#N)(C1)C2)N(Cc1ccc(C(F)(F)F)cn1)C(=O)c1ccc2nc(N)c3cnn(C)c3c2c1` [Example 188, 4-amino-N′-(3-cyanobicyclo[1.1.1]pentane-1-carbonyl)-N′,1-dimethyl-N-[[5-(trifluoromethyl)-2-pyridyl]methyl]pyrazolo[4,3-c]quinoline-8-carbohydrazide] are over 5 nM, 62 and 100 to 1000 nM.
On to `CN(C(=O)C(C)(F)F)N(Cc1ccc(C(F)(F)F)cn1)C(=O)c1ccc2nc(N)c3cnn(C)c3c2c1` [Example 189, 4-amino-N′-(2,2-difluoropropanoyl)-N′,1-dimethyl-N-[[5-(trifluoromethyl)-2-pyridyl]methyl]pyrazolo[4,3-c]quinoline-8-carbohydrazide], for which, in assay [1], the EC50 was under 1 nM and the “EC50 selectivity (SDMA assay)” value came to 13. In assay [2], the CC50 is under 100 nM.
As to `Cn1ncc2c(N)nc3ccc(C(=O)N(Cc4ccc(C(F)(F)F)cn4)N4CC5(CC5)OC4=O)cc3c21` [Example 190, 4-amino-1-methyl-N-(5-oxo-4-oxa-6-azaspiro[2.4]heptan-6-yl)-N-[[5-(trifluoromethyl)-2-pyridyl]methyl]pyrazolo[4,3-c]quinoline-8-carboxamide], in assay [1], the EC50 was under 1 nM and the “EC50 selectivity (SDMA assay)” value is reported as 144. This molecule also returned a CC50 in assay [2] of under 100 nM.
With `Cn1ncc2c(N)nc3ccc(C(=O)N(Cc4ccc(C(F)(F)F)cn4)N4CC5(COC5)OC4=O)cc3c21` [Example 191, 4-amino-1-methyl-N-(6-oxo-2,5-dioxa-7-azaspiro[3.4]octan-7-yl)-N-[[5-(trifluoromethyl)-2-pyridyl]methyl]pyrazolo[4,3-c]quinoline-8-carboxamide], in assay [1], the EC50 is over 5 nM and the “EC50 selectivity (SDMA assay)” value was determined as 103. The same molecule yielded a CC50 in assay [2] of 100 to 1000 nM.
As to `CN(C(=O)C1(C#N)CCC1)N(Cc1ccc(C(F)(F)F)cn1)C(=O)c1ccc2nc(N)c3cnn(C)c3c2c1` [Example 192, 4-amino-N′-(1-cyanocyclobutanecarbonyl)-N′,1-dimethyl-N-[[5-(trifluoromethyl)-2-pyridyl]methyl]pyrazolo[4,3-c]quinoline-8-carbohydrazide], in assay [1], the EC50 fell in the range of 1 to 5 nM and the “EC50 selectivity (SDMA assay)” value is 185. The molecule further yielded a CC50 in assay [2] of 100 to 1000 nM.
As to `CN(C(=O)C1(F)CC1)N(Cc1ccc(C(F)(F)F)nn1)C(=O)c1ccc2nc(N)c3cnn(C)c3c2c1` [Example 193, 4-amino-N′-(1-fluorocyclopropanecarbonyl)-N′,1-dimethyl-N-[[6-(trifluoromethyl)pyridazin-3-yl]methyl]pyrazolo[4,3-c]quinoline-8-carbohydrazide], in assay [1], the EC50 is under 1 nM and the “EC50 selectivity (SDMA assay)” value came out at 202. Further, the CC50 in assay [2] is under 100 nM.
As to `CN(C(=O)C1(F)CC1)N(Cc1ccc(C(F)(F)F)nn1)C(=O)c1cc2c(cc1F)nc(N)c1cnn(C)c12` [Example 194, 4-amino-7-fluoro-N′-(1-fluorocyclopropanecarbonyl)-N′, 1-dimethyl-N-[[6-(trifluoromethyl)pyridazin-3-yl]methyl]pyrazolo[4,3-c]quinoline-8-carbohydrazide], in assay [1], the EC50 was under 1 nM and the “EC50 selectivity (SDMA assay)” value is reported as 68. In addition, the CC50 in assay [2] was under 100 nM.
As to `CN(C(=O)C(F)F)N(Cc1ccc(C(F)(F)F)cn1)C(=O)c1ccc2nc(N)c3cnn(C)c3c2c1` [Example 195, 4-amino-N′-(2,2-difluoroacetyl)-N′,1-dimethyl-N-[[5-(trifluoromethyl)-2-pyridyl]methyl]pyrazolo[4,3-c]quinoline-8-carbohydrazide], in assay [1], the EC50 is under 1 nM and the “EC50 selectivity (SDMA assay)” value stood at 146. The CC50 in assay [2] is under 100 nM.
As to `CC(=O)N(C)N(Cc1ccc2ncsc2c1)C(=O)c1ccc2nc(N)c3cnn(C)c3c2c1` [Example 196, N′-acetyl-4-amino-N-(1,3-benzothiazol-6-ylmethyl)-N′,1-dimethyl-pyrazolo[4,3-c]quinoline-8-carbohydrazide], in assay [1], the EC50 lay in the range of 1 to 5 nM and the “EC50 selectivity (SDMA assay)” value is reported as 137. The same molecule had a CC50 in assay [2] of under 100 nM.
On to `CN(C(=O)[C@H]1CCO1)N(Cc1ccc(C(F)(F)F)cc1F)C(=O)c1ccc2nc(N)c3cnn(C)c3c2c1` [Example 197, 4-amino-N-[[2-fluoro-4-(trifluoromethyl)phenyl]methyl]-N′,1-dimethyl-N′-[(2R)-oxetane-2-carbonyl]pyrazolo[4,3-c]quinoline-8-carbohydrazide], for which, in assay [1], the EC50 was under 1 nM and the “EC50 selectivity (SDMA assay)” value came out at 61. This molecule also yielded a CC50 in assay [2] of under 100 nM.
Turning to `CN(C(=O)[C@@H]1CCO1)N(Cc1ccc(C(F)(F)F)cc1F)C(=O)c1ccc2nc(N)c3cnn(C)c3c2c1` [Example 198, 4-amino-N-[[2-fluoro-4-(trifluoromethyl)phenyl]methyl]-N′,1-dimethyl-N′-[(2S)-oxetane-2-carbonyl]pyrazolo[4,3-c]quinoline-8-carbohydrazide], in assay [1], the EC50 was under 1 nM and the “EC50 selectivity (SDMA assay)” value is 57. The molecule also gave a CC50 in assay [2] of under 100 nM.
For the molecule `Cn1ncc2c(N)nc3ccc(C(=O)N(Cc4ccc(C(F)(F)F)cc4F)n4ccnc4)cc3c21` [Example 199, 4-amino-N-[[2-fluoro-4-(trifluoromethyl)phenyl]methyl]-N-imidazol-1-yl-1-methyl-pyrazolo[4,3-c]quinoline-8-carboxamide], in assay [1], the EC50 was under 1 nM and the “EC50 selectivity (SDMA assay)” value worked out at 26. Besides, the CC50 in assay [2] was under 100 nM.
Taken in the same sequence, the figures for `Cn1ncc2c(N)nc3cc(F)c(C(=O)N(Cc4ccc(C(F)(F)F)cc4F)n4ccnc4)cc3c21` [Example 200, 4-amino-7-fluoro-N-[[2-fluoro-4-(trifluoromethyl)phenyl]methyl]-N-imidazol-1-yl-1-methyl-pyrazolo[4,3-c]quinoline-8-carboxamide] were under 1 nM, 6 and under 100 nM.
`COC(C)(C)C(=O)N(C)N(Cc1ccc(C(F)(F)F)cn1)C(=O)c1ccc2nc(N)c3cnn(C)c3c2c1` [Example 201, 4-amino-N′-(2-methoxy-2-methyl-propanoyl)-N′,1-dimethyl-N-[[5-(trifluoromethyl)-2-pyridyl]methyl]pyrazolo[4,3-c]quinoline-8-carbohydrazide]: in assay [1], the EC50 lay in the range of 1 to 5 nM and the “EC50 selectivity (SDMA assay)” value is on record as 423. For the same molecule, the CC50 in assay [2] is under 100 nM.
On the same counts, the results for `Nc1nc2ccc(C(=O)N(Cc3ccc(C(F)(F)F)cn3)N3CCCCC3=O)cc2c2[nH]ncc12` [Example 202, 4-amino-N-(2-oxo-1-piperidyl)-N-[[5-(trifluoromethyl)-2-pyridyl]methyl]-1H-pyrazolo[4,3-c]quinoline-8-carboxamide] are 1 to 5 nM, 10 and under 100 nM.
